According to patent publication US20110293757A1, “Compositions Comprising Tea Tree Oil and Methods for the Prevention and Treatment of Cancer” (priority 2008, published 2011):

Experiments:
[1] = tested on: B16 melanoma, UV induced squamous carcinoma and Lewis lung carcinoma; conditions: 18 μg, 3 topical treatments (Ogbourne, 2004); cited from earlier work
skin = conditions: cited from earlier work
AE17 mesothelioma = assay: Topical treatment of subcutaneous murine AE17 mesothelioma tumours, tumour area by micro-callipers; type: in vivo, C57BL/6J mice; conditions: 50 ul topically; 4% terpinen-4-ol, 2% γ-terpinene, 1% α-terpinene, 0.5% 1,8-cineole, 0.5% p-cymene; vs untreated controls
From the text: The models used, murine AE17 mesothelioma and murine B16 melanoma tumour, both involve the implantation of tumour cell lines subcutaneously onto the rear flank of fully immuno-competent mice. Palpable tumours arise within 3-14 days.
Female fully immuno-competent C57BL/6J mice between 6-8 weeks of ages are obtained from the Animal Resources Centre (Perth, Australia) and maintained under SPF (specified pathogen free) housing conditions (Animal Care Unit, University of Western Australia).
AE17 cells were derived from the peritoneal cavity of C57BL/6J mice injected with asbestos fibres (Jackaman, 2003) and (Davis, 1992) and are injected subcutaneously at a concentration of 1×10^7 per mouse (Needham, 2006). […]

| Structure (SMILES) | tumour regression [1] | skin reaction on topical application (skin) | AE17 tumour growth, components applied singly with DMSO (AE17 mesothelioma) |
| --- | --- | --- | --- |
| C/C=C(/C)C(=O)O[C@H]1C(C)=C[C@]23C(=O)[C@@H](C=C(CO)[C@@H](O)[C@]12O)[C@H]1[C@@H](C[C@H]3C)C1(C)C [3-Ingenyl-Angelate] | induces tumour regression with just 3 topical treatments | elicits skin irritation | – |
| CC(C)Cn1cnc2c(N)nc3ccccc3c21 [Imiquimod] | – | redness, drying and scabbing | – |
| CC1=CCC(C(C)C)=CC1 [γ-terpinene] | – | – | lack of efficacy |
| CC1=CC=C(C(C)C)CC1 [α-terpinene] | – | – | lack of efficacy |
| CC1=CCC(O)(C(C)C)CC1 (centres unmarked) [terpinen-4-ol] | – | – | lack of efficacy |
| CC12CCC(CC1)C(C)(C)O2 [1,8-cineole] | – | – | lack of efficacy |
| Cc1ccc(C(C)C)cc1 [p-cymene] | – | – | lack of efficacy |
